Laboratory results: paper PMC12990037, “Discovery of Two Structurally Distinct Classes of Inhibitors Targeting the Nuclease MUS81 and Enhancing Efficacy of Chemotherapy in Cancer Cells” (Journal of Medicinal Chemistry, 2026)

Molecular target: T1, truncated MUS81 binding to immobilized DNA substrate (Homo sapiens, UniProt Q96NY9)
T1 construct: made in house
T1 sequence (Q96NY9 246-551): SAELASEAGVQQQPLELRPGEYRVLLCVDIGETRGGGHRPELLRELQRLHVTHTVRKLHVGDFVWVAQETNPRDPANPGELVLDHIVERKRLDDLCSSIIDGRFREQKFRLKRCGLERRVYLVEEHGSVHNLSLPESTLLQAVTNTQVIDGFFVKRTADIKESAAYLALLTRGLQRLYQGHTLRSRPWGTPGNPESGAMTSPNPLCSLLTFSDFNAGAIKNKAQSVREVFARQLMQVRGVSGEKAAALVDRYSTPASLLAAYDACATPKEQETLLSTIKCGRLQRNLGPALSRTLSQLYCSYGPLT
T1 sequence (Q96AY2 178-570 partner limits assumed): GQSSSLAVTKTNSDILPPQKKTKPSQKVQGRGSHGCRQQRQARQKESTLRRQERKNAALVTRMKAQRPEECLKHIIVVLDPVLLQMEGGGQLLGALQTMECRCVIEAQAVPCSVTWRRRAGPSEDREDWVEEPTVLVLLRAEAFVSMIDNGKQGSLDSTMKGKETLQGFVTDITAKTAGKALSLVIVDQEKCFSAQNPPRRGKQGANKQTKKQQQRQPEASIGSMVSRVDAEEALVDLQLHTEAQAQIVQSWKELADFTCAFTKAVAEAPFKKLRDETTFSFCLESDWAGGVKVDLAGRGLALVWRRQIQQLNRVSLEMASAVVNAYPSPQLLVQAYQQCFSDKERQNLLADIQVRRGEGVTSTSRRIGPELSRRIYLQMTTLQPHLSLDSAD
Assay: Biolayer interferometry (BLI)
Settings: truncated MUS81 200 nM
Protocol: (A,B) Purified MUS81–EME1 (160 nM) was incubated with increasing concentrations of MU262, MU876, or their respective control analogues, followed by the addition of 3 nM fluorescently labeled 3′ flap DNA substrate. MgCl2 was omitted from the reaction buffer to prevent substrate cleavage. The reaction products were resolved on a native PAGE gel. The lower band represents a free DNA substrate, while the upper smear corresponds to the MUS81–DNA complex. n = 3. (C,D) A 3′ flap cleavage-resistant DNA substrate was immobilized on a streptavidin-coated (SAX) sensor and incubated with truncated MUS81 (200 nM) alone, or with MUS81 premixed with DMSO, MU876, MU262, or their respective control analogues. The real-time binding kinetics were measured as a change in optical thickness over time. Representative plots shown from two independent experiments. (E) Representative images of a DMSO-treated cell within 100 s after microirradiation. GFP-MUS81 U2OS cells were preincubated with DMSO or MU876 at 1 and 5 μM final concentration for 2 h. Localized DNA damage was induced using a 355 nm laser microirradiation at specific sites in individual nuclei. […] (F) The integrated intensity of a GFP-MUS81 signal accumulation ± SE from (E). n = 3.

SMILES: CCc1nn2c(O)c(-c3nc4ccccc4[nH]3)nnc2c1-c1ccc(F)cc1 [Compound 18, 3-(1H-Benzo[d]imidazole-2-yl)-7-ethyl-8-(4-fluorophenyl)pyrazolo[5,1-c][1,2,4]triazin-4-ol]
- effect on MUS81–DNA binding (BLI): only negligible effect
